Tests used:
[1] = system: SW620D; test: Neutral red uptake antiproliferative assay, MDR line SW620D; assay type: cell-based, human; conditions: for IC50: exposure time 72 h, n = 3, ABCB1-overexpressing MDR line; for activity factor IC50(1)/IC50(3a–4d), SW620D: vs corresponding amine (R)-1 or (S)-1, 72 h
Source text: (§1) Next, we evaluated the cytotoxicity of the synthesized complexes toward the panel of six multidrug-resistant (MDR) cell lines derived from SW620 and characterized by the overexpression of various ABC proteins, namely, ABCG2 (SW620C and SW620Mito), ABCC1 (SW620M and SW620E), and ABCB1 (SW620D, SW620E, and SW620V) (Table 3, Figures S29 and S32). […] The activity of the complexes derived from the ligand (S)-2 is also considerably higher than that of the compounds containing the ligand (R)-2. The cytotoxicity of both rhodium 4c and iridium 4d complexes is higher than that of amine (S)-1. In the case of 4c, the increase in cytotoxicity is low, with the highest value of 3.7-fold for the SW620Mito line. […] Compound 4d also exerts a 2.1- and 2.6-fold higher cytotoxicity than […] against the SW620C and SW620D lines.
(§2) For this purpose, neutral red uptake assay was performed. […] The results were presented as a percentage of control.

[2] = system: SW620; test: Neutral red uptake antiproliferative assay, SW620; assay type: cell-based, human; conditions: for IC50: exposure time 72 h, n = 3, 95% CI given; for activity factor IC50(1)/IC50(3a–4d), SW620: vs corresponding amine (R)-1 or (S)-1, 72 h
Source text: (§3) To assess the impact of conjugating half-sandwich complexes with amines 1 via an imine-pyridine ligand on biological activity, we examined the antiproliferative potential of (R)- and (S)-1 and organometallic conjugates 3a–d and 4a–d in selected human cancer cell lines: alveolar basal epithelial cell adenocarcinoma (A549), colorectal adenocarcinomas (Colo205 and SW620), colorectal carcinoma (HCT116), hepatocellular carcinoma (HepG2), and breast adenocarcinoma (MCF7). The choice of cell lines was dictated by results of previously published clinical trials on ispinesib.[49],[50]
(§4) Cell lines used in this study were purchased from the American Type Culture Collection via LGC Standards. Human normal lung fibroblasts (MRC-5), alveolar basal epithelial cell adenocarcinoma (A549), colorectal adenocarcinoma (Colo205), hepatocellular carcinoma (HepG2), breast adenocarcinoma (MCF7), and colorectal adenocarcinoma (SW620) and its MDR variants[55] were cultured in standard conditions (37 °C, 5% CO2, 100% relative humidity) in high glucose DMEM medium supplemented with GlutaMax, HEPES (ThermoFisher Scientific) and 10% fetal bovine serum (EURx, Poland). All cell lines were tested for Mycoplasma contamination using a MycoProbe mycoplasma detection kit (R&D System).
(§5) For this purpose, neutral red uptake assay was performed. 10^4 of cells were seeded per well of a 96-well plate and left overnight to allow cells to attach to the surface. Then, the cells were exposed to a desired concentration of tested compounds. Stock solutions were prepared in DMSO and were used immediately after preparation. The final concentration of DMSO was constant and nontoxic (0.1% v/v). After 70 h of culture, neutral red was added to the final concentration of 1 mM. After 2 h of incubation with the dye, the medium was aspirated and cells were washed with ice-cold PBS. The dye was released using 100 μL of the solubilizer (1% acetic acid in 50% ethanol) on an orbital shaker (10 min). The absorbance at 540 nm was measured using an EnVision multilabel plate reader (PerkinElmer). […] The IC90 and IC50 parameters were calculated using GraphPad Prism v9 software using the five-parameter nonlinear logistic regression model.

[3] = system: HCT116; test: cells; conditions: for IC50: read-out: IC50 HCT116, exposure time 72 h, n = 3, 95% CI given; for activity factor IC50(1)/IC50(3a–4d), HCT116: vs corresponding amine (R)-1 or (S)-1, 72 h
Source text: as §3, §5

[4] = system: SW620 cells; test: ROS generation, dihydrorhodamine 123 oxidation assay; assay type: cell-based, human; conditions: SW620, 1 μM compound, 4 h, DHR123 with 10 μM verapamil; vs control or (R)- and (S)-1
Source text: Metal complexes often induce reactive oxygen species (ROS) generation in cells,[51] which may increase their cytotoxic activity compared to purely organic molecules. To study the impact of the synthesized compounds on ROS production, we have measured the ROS generation in SW620 cells by the dihydrorhodamine 123 (DHR123) oxidation assay (Figure 9). However, there is no correlation between the antiproliferative potential and the ability of a compound to generate ROS.
Dihydrorhodamine 123 oxidation was used as an indicator of intracellular ROS production. For this purpose, SW620 cells were seeded in 6-well plates at a density of 10^5 cells per well. The cells were left overnight (time needed for them to attach to the surface). Then, 1 μM tested compounds were added along with 1 μM DHR123. Additionally, since DHR123 is a substrate of ABCB1 (which may interfere in this assay), 10 μM verapamil, an inhibitor of this protein, was added. The cells were cultured for an additional 4 h at 37 °C, and then the cells were harvested by trypsinization, resuspended in a complete medium, and analyzed using a LSRII flow cytometer (Becton Dickinson) in a FITC channel (530/30 nm). The results are presented as a percentage of control (median fluorescence in the presence of DMSO).

[5] = system: SW620 cells; test: Cell cycle distribution by flow cytometry, SW620; assay type: cell-based, human; conditions: concentration equal to IC75 of (S)-1 / (R)-1, mean ± SEM, n = 3; for Cell cycle fraction G1, 24 h / Cell cycle fraction G2/M, 24 h / Cell cycle fraction S, 24 h: SW620, 24 h; for Cell cycle fraction G1, 48 h / Cell cycle fraction G2/M, 48 h / Cell cycle fraction S, 48 h: SW620, 48 h
Protocol: Ispinesib leads to the formation of monopolar mitotic spindles and a blockade of chromosome segregation in cancer cells. Using flow cytometry, we assessed the cell cycle distribution in the SW620 and SW620E cells exposed to the studied compounds for 24 and 48 h. […] Both complexes, 3c and 3d, decrease the percentage of cells in the G1/G0 phase and increase the percentage in the S and G2/M phases. […] Furthermore, prolonged exposure to the compounds increases the percentage of cells in the G2/M phase, with the most intensive effect observed for 3c and 3d.
SW620 and SW620E cells lines (vulnerable and resistant variants, respectively) were seeded in 6-well plates at a density of 10^5 cells per well. […] After 24 h, the cells were trypsinized and fixed with ice-cold 70% v/v ethanol. The cells were stained with 75 μM propidium iodide with 50 Kunitz units of RNase A in PBS for 30 min at 37 °C. All samples were analyzed using a LSRII flow cytometer (Becton Dickinson) at a PE channel ([…]). Cell cycle phase distribution was determined using a built-in cell cycle module (Watson pragmatic algorithm) by FlowJo 7.6.1 software.

[6] = system: SW620M; test: Neutral red uptake antiproliferative assay, MDR line SW620M; assay type: cell-based, human; conditions: for IC50: exposure time 72 h, n = 3, ABCC1-overexpressing MDR line; for activity factor IC50(1)/IC50(3a–4d), SW620M: vs corresponding amine (R)-1 or (S)-1, 72 h
Source text: as §1, §2

[7] = system: SW620V; test: Neutral red uptake antiproliferative assay, MDR line SW620V; assay type: cell-based, human; conditions: for IC50: exposure time 72 h, n = 3, ABCB1-overexpressing MDR line; for activity factor IC50(1)/IC50(3a–4d), SW620V: vs corresponding amine (R)-1 or (S)-1, 72 h
Source text: as §1, §2

[8] = system: HepG2; test: cells; conditions: for IC50: read-out: IC50 HepG2, exposure time 72 h, n = 3, 95% CI given; for activity factor IC50(1)/IC50(3a–4d), HepG2: vs corresponding amine (R)-1 or (S)-1, 72 h
Source text: as §3, §4, §5

[9] = system: Colo205; test: cells; conditions: for IC50: read-out: IC50 Colo205, exposure time 72 h, n = 3, 95% CI given; for activity factor IC50(1)/IC50(3a–4d), Colo205: vs corresponding amine (R)-1 or (S)-1, 72 h
Source text: as §3, §4, §5

[10] = system: MCF7; test: cells; conditions: for IC50: read-out: IC50 MCF7, exposure time 72 h, n = 3, 95% CI given; for activity factor IC50(1)/IC50(3a–4d), MCF7: vs corresponding amine (R)-1 or (S)-1, 72 h
Source text: as §3, §4, §5

[11] = system: A549; test: Neutral red uptake antiproliferative assay, A549; conditions: for IC50: read-out: IC50 A549, exposure time 72 h, n = 3, 95% CI given; for activity factor IC50(1)/IC50(3a–4d), A549: vs corresponding amine (R)-1 or (S)-1, 72 h
Source text: as §3, §4, §5

[12] = system: SW620C; test: Neutral red uptake antiproliferative assay, MDR line SW620C; assay type: cell-based, human; conditions: for IC50: exposure time 72 h, n = 3, ABCG2-overexpressing MDR line; for activity factor IC50(1)/IC50(3a–4d), SW620C: vs corresponding amine (R)-1 or (S)-1, 72 h
Source text: as §1, §2

[13] = system: SW620E; test: Neutral red uptake antiproliferative assay, MDR line SW620E; assay type: cell-based, human; conditions: for IC50: exposure time 72 h, n = 3, ABCC1- and ABCB1-overexpressing MDR line; for activity factor IC50(1)/IC50(3a–4d), SW620E: vs corresponding amine (R)-1 or (S)-1, 72 h
Source text: as §1, §2

[14] = system: SW620Mito; test: Neutral red uptake antiproliferative assay, MDR line SW620Mito; assay type: cell-based, human; conditions: for IC50: exposure time 72 h, n = 3, ABCG2-overexpressing MDR line; for activity factor IC50(1)/IC50(3a–4d), SW620Mito: vs corresponding amine (R)-1 or (S)-1, 72 h
Source text: as §1, §2

[15] = system: human cancer cell lines (A549, Colo205, HCT116, HepG2, MCF7, SW620); test: Neutral red uptake antiproliferative assay, panel of human cancer cell lines; assay type: cell-based; conditions: cell line not stated
Source text: as §3
as §5, with “The dye was released using 100 μL of the solubilizer (1% acetic acid in 50% ethanol) on an orbital shaker (10 min).” left out

[16] = compared with the amine of opposite configuration, (R)-1

Row | IC50 [1] [nM] | activity factor IC50(1)/IC50(3a–4d), SW620D [1] | IC50 [2] [nM] | activity factor IC50(1)/IC50(3a–4d), SW620 [2] | IC50 [3] [nM] | activity factor IC50(1)/IC50(3a–4d), HCT116 [3] | IC50 [6] [nM] | activity factor IC50(1)/IC50(3a–4d), SW620M [6] | IC50 [7] [nM] | activity factor IC50(1)/IC50(3a–4d), SW620V [7] | IC50 [8] [nM] | activity factor IC50(1)/IC50(3a–4d), HepG2 [8] | IC50 [9] [nM] | activity factor IC50(1)/IC50(3a–4d), Colo205 [9] | Compound | Cell cycle fraction G1, 24 h [5] [%] | Cell cycle fraction G2/M, 24 h [5] [%] | Cell cycle fraction S, 24 h [5] [%] | Cell cycle fraction G1, 48 h [5] [%] | Cell cycle fraction G2/M, 48 h [5] [%] | Cell cycle fraction S, 48 h [5] [%] | also measured
1 | 6010 | (0.690) | 2910 | (0.986) | 3760 | (2.14) | 3240 | (1.07) | 5010 | (0.687) | 1890 | (1.27) | 939 | (6.46) | CC(C)[C@H](N=Cc1ccccn1)c1nc2cc(Cl)ccc2c(=O)n1Cc1ccccc1.Cc1ccc(C(C)C)cc1.F[P-](F)(F)(F)(F)F.[Cl-].[Ru+2] [Compound 4a, [(cym)Ru((S)-2)Cl]PF6] | 52.8 ± 1.2 | 33.3 ± 1.0 | 13.5 ± 0.4 | 46.8 ± 0.7 | 39.1 ± 0.3 | 13.5 ± 0.8 | ROS generation (in words) [4]: increase the level of ROS; increased cytotoxicity vs corresponding amine 1, Colo205 [9]: approximately 6 fold; increased cytotoxicity vs corresponding amine 1, MCF7 [10]: approximately 6 fold; IC50 [10]: 634 nM; activity factor IC50(1)/IC50(3a–4d), MCF7 [10]: (6.17); IC50 [11]: 3250 nM; activity factor IC50(1)/IC50(3a–4d), A549 [11]: (2.17); IC50 [12]: 4360 nM; activity factor IC50(1)/IC50(3a–4d), SW620C [12]: (0.764); IC50 [13]: 5460 nM; activity factor IC50(1)/IC50(3a–4d), SW620E [13]: (0.741); IC50 [14]: 3680 nM; activity factor IC50(1)/IC50(3a–4d), SW620Mito [14]: (1.06)
2 | 425 | (9.76) | 139 | (20.65) | 222 | (36.31) | 387 | (8.94) | 411 | (8.37) | 218 | (11.01) | 216 | (28.1) | CC(C)[C@H](N=Cc1ccccn1)c1nc2cc(Cl)ccc2c(=O)n1Cc1ccccc1.Cc1c(C)c(C)[c-](C)c1C.F[P-](F)(F)(F)(F)F.[Cl-].[Ir+3] [Compound 4d, [(Cp*)Ir((S)-2)Cl]PF6] | 51.7 ± 1.2 | 28.9 ± 0.4 | 14.3 ± 0.2 | 44.1 ± 0.5 | 40.6 ± 1.3 | 13.7 ± 0.4 | higher cytotoxicity than (R)-1, SW620D [1, 16]: 2.6 fold; higher cytotoxicity compared to (R)-1 [15]: 1.6 fold; higher cytotoxicity compared to (S)-1 [15]: 2.6 fold; IC50 [10]: 216 nM; activity factor IC50(1)/IC50(3a–4d), MCF7 [10]: (18.10); IC50 [11]: 764 nM; activity factor IC50(1)/IC50(3a–4d), A549 [11]: (9.23); higher cytotoxicity than (R)-1, SW620C [12, 16]: 2.1 fold; IC50 [12]: 343 nM; activity factor IC50(1)/IC50(3a–4d), SW620C [12]: (9.71); IC50 [13]: 663 nM; activity factor IC50(1)/IC50(3a–4d), SW620E [13]: (6.11); IC50 [14]: 365 nM; activity factor IC50(1)/IC50(3a–4d), SW620Mito [14]: (10.71)
